{
  "source": "paper PMC3742671",
  "about": "“Structure, Antimicrobial Activities and Mode of Interaction with Membranes of Bovel Phylloseptins from the Painted-Belly Leaf Frog, Phyllomedusa sauvagii” (PLoS ONE, 2013)",
  "key": {"[1]": {"test_system": "Leishmania infantum (strain MHOM/MA/67/ITMAP-263) promastigotes", "type": "cell-based", "description": "(§1) The effect of phylloseptins-S was evaluated against several bacterial strains and yeasts (Table 2). Bacteria were cultured in Luria-Bertani broth (LB), whereas yeasts were cultured in Yeast Peptone Dextrose medium (YPD), and minimal inhibitory concentrations (MICs) were determined by measuring the absorbance at 630 nm in 96-well microtitration plates, as described previously. Leishmanicidal activity of phylloseptins-S was also examined against promastigotes of different Leishmania species: Leishmania infantum (strain MHOM/MA/67/ITMAP-263), L. major (MHOM/SU/73/5-ASKH) and L. braziliensis (MHOM/BR/75/M2904). Culture of promastigotes and determination of the growth inhibition were performed as previously described, [22], [23].\nFigure 3 Activity of phylloseptins-S against Leishmania infantum promastigotes. IC50 values were determined from a dose-response inhibition fit using GraphPad Prism 5.0 (Table 2). Results represent the mean ± S.E.M. and are representative of three experiments carried out in triplicates."}, "S. aureus ST1065 [2]": {"test_system": "S. aureus ST1065", "assay": "Permeabilization of the cytoplasmic membrane (ONPG hydrolysis)", "type": "cell-based", "conditions": "ONP production at 405 nm from ONPG; compared with 10 µM dermaseptin B2 as positive control", "description": "PLS-induced permeabilization of the cytoplasmic plasma membranes of E. coli ML-35p and S. aureus ST1065 was measured by the rate of production of o-nitrophenol (ONP) at 405 nm, following hydrolysis of o-nitrophenyl β-D-galactopyranoside (ONPG) by β-galactosidase. Dermaseptin B2 (10 µM) and PBS were used as positive and negative controls, respectively.\nPLS-induced permeabilization of the cytoplasmic membranes of S. aureus ST1065 and E. coli ML-35p was analyzed by incubating the bacteria, which express β-galactosidase constitutively, with different concentrations of the peptides (S. aureus ST1065: PLS-S1, -S2, and -S4; E. coli ML-35p: PLS-S2 and -S4) and measuring the time-dependent hydrolysis of the small chromogenic substrate o-nitrophenyl-β-D-galactopyranoside (ONPG) into o-nitrophenol (ONP) by cytoplasmic β-galactosidase (Fig. 5). The three peptides permeabilized the bacterial cytoplasmic membrane with increasing severity according to the time and the peptide concentration. […] To investigate the mechanism of permeabilization, E. coli ML-35p were incubated with PLS-S2 (30 and 100 µM) and PLS-S4 (25 and 100 µM) for 60 min and β-galactosidase activity was measured after removing bacteria by centrifugation and adding ONPG to the supernatant.\nFigure 5 Kinetics of the cytoplasmic membrane leakage of E. coli ML-35p and S. aureus ST1065 after incubation with different concentrations of active phylloseptins-S. The membrane leakage was determined by measuring the production of o-nitrophenol at 405 nm following hydrolysis of ONPG by the cytoplasmic bacterial β-galactosidase. Data are expressed as the mean ± S.E.M of two experiments carried out in triplicates after subtraction of the negative control values (w/o peptide) from the test values. Control panels display the kinetics obtained without peptide (negative control) and with 10 µM dermaseptin B2 (Drs B2, positive control). For E. coli ML-35p, the extracellular release of β-galactosidase was also measured as the production of o-nitrophenol at 405 nm after incubation (60 min) of E. coli cells with PLS-S2 (30 and 100 µM) and PLS-S4 (25 and 100 µM), removing of bacteria by centrifugation and adding ONPG to the supernatant. The negative (w/o peptide) and positive (10 µM Drs B2) controls are indicated for comparison. Results are expressed as the mean ± S.E.M of one representative experiment performed in triplicates."}, "[3]": {"test_system": "human leukemia monocyte cell line THP-1", "assay": "Cytotoxic activity, MTT", "type": "cell-based", "conditions": "for IC50: 72 h, 37°C, RPMI + 10% FCS, peptide 3 to 50 µM, MTT read at 570 nm, average of three independent experiments in triplicates; for LC50: value stated jointly for the three peptides", "description": "Hemolytic assays were performed using fresh human erythrocytes from a healthy donor according to a previously described protocol. Cytotoxic activity of PLS-S was also determined on the human leukemia monocyte cell line THP-1. 80 µL of 6.25×10^5 cells/mL were incubated for 72 h with 20 µL of peptide (3 to 50 µM, final concentrations) at 37°C and 5% CO2 in RPMI medium supplemented with 10% FCS. The cell viability was determined by adding 10 µL of methylthiazolyldiphenyl-tetrazolium bromide (MTT, 10 mg/mL) to the plate. After 4h incubation at 37°C, formazan was solubilized with 100 µL of a solution containing 50% isopropanol and 10% SDS, and the absorbance was measured at 570 nm. The lytic concentration 50 (LC50), which correspond to the peptide concentration producing 50% lysis, was determined with the GraphPad Prism® 5.0 software. Results were expressed as the mean of three independent experiments performed in triplicates."}, "[4]": {"test_system": "L. braziliensis (MHOM/BR/75/M2904) promastigotes", "type": "cell-based", "description": "as §1"}, "[5]": {"test_system": "L. major (MHOM/SU/73/5-ASKH) promastigotes", "type": "cell-based", "description": "as §1"}, "[6]": {"test_system": "C. parapsilosis ATCC 22019", "type": "cell-based", "description": "as §1"}, "S. cerevisiae": {"test_system": "S. cerevisiae", "type": "cell-based", "description": "as §1"}, "S. aureus ST1065 [7]": {"test_system": "S. aureus ST1065", "assay": "Time-kill assay", "type": "cell-based", "conditions": "for time to complete killing: peptide at two-fold above the MIC (MIC 6.25 µM), ∼2–3 10^6 cfu/mL in PBS, two experiments in triplicates", "description": "The time-kill kinetics of phylloseptins-S against the Gram-negative bacteria E. coli ML-35p and the Gram-positive strain S. aureus ST1065 were evaluated as previously described with a dose of peptide corresponding to the MIC and two-fold above the MIC. Two experiments were realized in triplicates.\nFigure 4 Time-kill curves of PLS-S1 (S1), -S2 (S2), and -S4 (S4). […] Controls correspond to bacteria incubated in PBS without peptide. The data are the means ± S.E.M. of two experiments carried out in triplicates."}, "[8]": {"assay": "Circular dichroism spectroscopy in SDS micelles", "type": "physicochemical", "conditions": "CD, peptide 30 µM in 80 mM SDS", "description": "The far-ultraviolet circular dichroism (CD) spectra were recorded as described. Phylloseptins-S (30 µM) were solubilized either in 80 mM sodium dodecyl sulfate (SDS) or in phosphate-buffered saline (PBS: 10 mM phosphate, pH 7.3) containing 1 mg/mL of large unilamellar vesicles (LUVs) of 1,2-dimyristoyl-sn-glycero-3-phosphocholine (DMPC) and 1,2-dimyristoyl-sn-glycero-3-phosphoglycerol (DMPG) (3∶1 mol/mol). DMPC and DMPG were purchased from Avanti Polar Lipids, Inc. Each spectrum was the average of four scans. CD measurements are reported as Δ/n, where Δ is the dichroic increment and n is the number of residues in the peptide.\nFigure 6 Circular dichroism spectra of synthetic phylloseptins-S (30 µM). (A) DMPC/DMPG (3∶1) large unilamellar vesicles in PBS (1 mg/mL). (B) 80 mM SDS. CD measurements are reported as the dichroic increment (Δε) per residue."}},
  "note": "Like-named read-outs stand apart in the source and are kept apart here. Ends that are not written are not given here.",
  "data": [
    {"substance": "FLSLIPHIVSGVASIAKHF-NH2 [PLS-S1]", "values": [
      {"measurement": "IC50", "setting": "[1]", "value": 16.5, "unit": "µM"},
      {"measurement": "permeabilization of the cytoplasmic membrane (in words)", "setting": "S. aureus ST1065 [2]", "value": "as efficient as with dermaseptin-B2"},
      {"measurement": "IC50", "setting": "[3]", "value": 23, "unit": "µM"},
      {"measurement": "LC50", "setting": "[3]", "value": 23, "unit": "µM"},
      {"measurement": "IC50", "setting": "[4]", "value": 15.3, "unit": "µM"},
      {"measurement": "IC50", "setting": "[5]", "value": 12.6, "unit": "µM"},
      {"measurement": "MIC", "setting": "[6]", "value": 100, "unit": "µM"},
      {"measurement": "MIC", "setting": "S. cerevisiae", "value": 12.5, "unit": "µM"},
      {"measurement": "time to complete killing", "setting": "S. aureus ST1065 [7]", "value": "≤ 5", "unit": "min"},
      {"measurement": "helix content", "setting": "[8]", "value": 96, "unit": "%"}
    ]},
    {"substance": "FLSMIPHIVSGVAALAKHL-NH2 [PLS-S4]", "values": [
      {"measurement": "IC50", "setting": "[1]", "value": 22, "unit": "µM"},
      {"measurement": "permeabilization of the cytoplasmic membrane (in words)", "setting": "S. aureus ST1065 [2]", "value": "as efficient as with dermaseptin-B2"},
      {"measurement": "IC50", "setting": "[3]", "value": 23, "unit": "µM"},
      {"measurement": "LC50", "setting": "[3]", "value": 23, "unit": "µM"},
      {"measurement": "IC50", "setting": "[4]", "value": 17.2, "unit": "µM"},
      {"measurement": "IC50", "setting": "[5]", "value": 18, "unit": "µM"},
      {"measurement": "MIC", "setting": "[6]", "value": 50, "unit": "µM"},
      {"measurement": "MIC", "setting": "S. cerevisiae", "value": 12.5, "unit": "µM"},
      {"measurement": "killing kinetics (in words)", "setting": "S. aureus ST1065 [7]; compared with PLS-S1 and -S2, MIC and two-fold above the MIC, in PBS", "value": "slower"},
      {"measurement": "helix content", "setting": "[8]", "value": 59, "unit": "%"}
    ]},
    {"substance": "FLSLIPHIVSGVASLAKHF-NH2 [PLS-S2]", "values": [
      {"measurement": "IC50", "setting": "[1]", "value": 18.5, "unit": "µM"},
      {"measurement": "permeabilization of the cytoplasmic membrane (in words)", "setting": "S. aureus ST1065 [2]", "value": "as efficient as with dermaseptin-B2"},
      {"measurement": "IC50", "setting": "[3]", "value": 22.5, "unit": "µM"},
      {"measurement": "LC50", "setting": "[3]", "value": 23, "unit": "µM"},
      {"measurement": "IC50", "setting": "[4]", "value": 15, "unit": "µM"},
      {"measurement": "IC50", "setting": "[5]", "value": 13.3, "unit": "µM"},
      {"measurement": "MIC", "setting": "[6]", "value": 50, "unit": "µM"},
      {"measurement": "MIC", "setting": "S. cerevisiae; YPD medium, absorbance at 630 nm, average of three independent experiments in triplicates", "value": 6.25, "unit": "µM"},
      {"measurement": "time to complete killing", "setting": "S. aureus ST1065 [7]", "value": "≤ 5", "unit": "min"},
      {"measurement": "helix content", "setting": "[8]", "value": 65, "unit": "%"}
    ]}
  ]
}
